{
  "source": "patent US20240224953A1",
  "about": "(Barlaa B.V., priority 2021, published 2024)",
  "key": {"[1]": {"tested_on": "α-amylase gene", "details": "hepatopancreas, after 56 days, versus control, FIG. 2", "protocol": "For RNA extraction, hepatopancreases were extracted by using trizol reagent (Invitrogen, USA). Briefly, 1 ml of trizol reagent were added into 50-100 mg of tissue samples. then, the samples were homogenized at 3,500 rpm for 1 min by using Micro Smash MS-100R (TOMY, Japan). After incubated sample at RT for 5 min, 200 μl of chloroform were added and mixed vigorous. The samples were centrifuged at 12,000 rpm at 4° C. for 15 min. after collected supernatant into new 1.5 ml tube, 1 volume of isopropanol were added and incubated at −20° C. for 2 h or O/N. Next, RNA pellets were collected by centrifuged at 12,000 rpm at 4° C. for 15 min. then, the pellets were washed with 500 μl of 75% ethanol and dried pellet at 65° C. Lastly, 30 μl of RNase free water was added for dissolved RNA pellet. RNA concentration was measured by using nanodrop spectrophotometer (Thermo Fisher Scientific, USA). […]\nReal-time PCR was used to detected growth genes in shrimp.\nReaction mixture for real-time PCR was composed of 1 μl of 100 cDNA, 5 μl of 2× qPCRBIO SyGreen mix, forward and reverse primer at final concentration 0.2 μM and adjusted volume up to 10 μl by nuclease free water. […] The relative fold gene expression level was calculated by using the formula below: […]"}, "[2]": {"tested_on": "whiteleg shrimps (Litopenaeus vannamei)", "description": "Water quality parameters, including salinity, dissolved oxygen, pH and total ammonia nitrogen (TAN) were monitored regularly in both control and treated ponds. The growth rate of the shrimps was monitored regularly. Total number was counted and mean body weight of shrimp was measured. Based on recording the weight of shrimp and counting the number of shrimps, weight gain, feed conversion ratio (FCR) and survival were calculated."}, "[3]": {"tested_on": "whiteleg shrimps", "details": "applied once or twice a day, 6 ponds"}, "[4]": {"tested_on": "Pangasius hypophthalmus", "assay": "Experiment 7C: pond trial on Pangasius in Bangladesh", "format": "in vivo", "details": "overall results of the 8 ponds", "from_the_text": "Pangas belonging to the genus of medium-large catfishes, is a relatively new and fast-growing fish species that has great potential for production and export growth in Bangladesh. Polyculture of pangasius (P. hypophthalmus) with carps is the existing culture practice along with monoculture being practiced by many households in Bangladesh.\nTrials have been done in 2019 in Mymensingh region on 4 ponds with an average of 1,4 ha and an average depth of 1.5 m in the dry season and 2 m. in the rainy season (May to November). For feeding standard commercial pelleted feeds were used."}, "[5]": {"tested_on": "whiteleg shrimps", "from_the_text": "In […] further experiments were done in Gujarat-India on whiteleg shrimps."}, "[6]": {"tested_on": "whiteleg shrimps", "remark": "listed apart in the source"}, "[7]": {"tested_on": "Pacific Whiteleg shrimp (Litopenaeus vannamei)", "protocol": "An 8-week growth trial study on Pacific Whiteleg shrimp (Litopenaeus vannamei) (1.0 g/shrimp) in duplicate was conducted in a 3,200 m2 earthen pond (100,000 shrimps per 1,600 m2) at the GAP certified private shrimp farm, Nakhon Pathom province, Thailand. […] The pond size was 2 Rai (1 Rai is 1,600 m^2). Stocking density is 100,000 shrimps/1 Rai.\nShrimp were fed by automatic feeder four times a day according to the farming standard. […] The bespoke shrimp feed specification was Crude Protein 38%, Crude Fat 7%, and diet pellet sizes of 1.5 mm; 2.0 mm; 2.5 mm that were assigned across the trial period to optimise maximum intake."}, "[8]": {"tested_on": "whiteleg shrimp", "from_the_text": "Trials are done in Northern part, Central part and Southern part in Vietnam, 2020-2021."}, "[9]": {"tested_on": "trypsin gene", "details": "hepatopancreas, after 56 days, versus control, FIG. 2", "description": "At the end of the grow-out period, shrimp were sampled for the growth and feed utilisation metrics. Water quality parameters were measured three times daily. At the end of the trial, shrimps were assessed for the growth performance as described below. Shrimp from each treatment group were examined and the hepato-pancreas removed carefully from 10 individual animals and processed as described below.\nFor RNA extraction, hepatopancreases were extracted by using trizol reagent (Invitrogen, USA). Briefly, 1 ml of trizol reagent were added into 50-100 mg of tissue samples. then, the samples were homogenized at 3,500 rpm for 1 min by using Micro Smash MS-100R (TOMY, Japan). After incubated sample at RT for 5 min, 200 μl of chloroform were added and mixed vigorous. The samples were centrifuged at 12,000 rpm at 4° C. for 15 min. after collected supernatant into new 1.5 ml tube, 1 volume of isopropanol were added and incubated at −20° C. for 2 h or O/N. Next, RNA pellets were collected by centrifuged at 12,000 rpm at 4° C. for 15 min. then, the pellets were washed with 500 μl of 75% ethanol and dried pellet at 65° C. Lastly, 30 μl of RNase free water was added for dissolved RNA pellet. RNA concentration was measured by using nanodrop spectrophotometer (Thermo Fisher Scientific, USA)."}, "[10]": {"tested_on": "Tiger shrimps (Penaeus monodon)", "details": "three ponds, applied after each change of water every 5 days", "description": "Tiger shrimps (Penaeus monodon), also named giant tiger prawn, asian tiger prawn or black tiger shrimp, is one of the most popular cultured shrimp species in the world.\nA small scale trial was carried out in 2019 in Chittagong-Bangladesh in three ponds of +2.5 ha."}, "[11]": {"details": "all testing locations in Vietnam, 2020-2021"}},
  "note": "Read-outs that look alike come from different tables or passages of the source.",
  "data": [
    {"substance": "silicic acid [bioavailable silicic acid compound]", "values": [
      {"measurement": "α-amylase gene expression relative to housekeeping gene", "setting": "[1]", "result": "down regulation"},
      {"measurement": "average weight gain of the shrimps compared to control pond", "setting": "[2]; first experiments, 2017, brackish ponds, Gujarat", "result": 26, "unit": "%"},
      {"measurement": "increase (average weight gain) compared to control", "setting": "[2]; second trial", "result": 17.5, "unit": "%"},
      {"measurement": "overall increase of the yield", "setting": "[3]", "result": 19, "unit": "%"},
      {"measurement": "increase of overall yield", "setting": "[4]; both treatments pooled", "result": 16.6, "unit": "%"},
      {"measurement": "overall yield", "setting": "[4]; both treatments pooled (from 11.400 kg/ha/year)", "result": 13.300, "unit": "kg/ha/year"},
      {"measurement": "average yield increase of shrimps", "setting": "[5]; 8 ponds, 1.5 liters of 2.5% product every 15 days, compared to control", "result": 18.3, "unit": "%"},
      {"measurement": "food conversion rate (FCR)", "setting": "[5]; average of treated ponds (control ponds 1.52)", "result": 1.45},
      {"measurement": "average yield increase of shrimps", "setting": "[6]; 4 ponds, application every 3 days, brackish water", "result": 24.27, "unit": "%"},
      {"measurement": "feed conversion rate (FCR)", "setting": "[6]; average of treated ponds (control ponds 1.5)", "result": 1.37},
      {"measurement": "average (mean) weight of shrimp at end of trial", "setting": "[7]; 8-weeks growth trial, FIG. 1 (control 9.48)", "result": 12.49, "unit": "g"},
      {"measurement": "Apparent net protein utilization (%)", "setting": "[7]; 8 weeks, with silicic acid", "result": "36.4 ± 1.4 ^A %"},
      {"measurement": "Average daily gain", "setting": "[7]; 8 weeks, with silicic acid", "result": "0.12 ± 0.02", "unit": "g/day"},
      {"measurement": "Feed conversion ratio", "setting": "[7]; 8 weeks, with silicic acid", "result": "1.18 ± 0.05 ^A"},
      {"measurement": "Final weight (g/shrimp)", "setting": "[7]; 8 weeks, with silicic acid", "result": "12.49 ± 2.46", "unit": "g/shrimp"},
      {"measurement": "Specific growth rate (%/day)", "setting": "[7]; 8 weeks, with silicic acid", "result": "3.21 ± 0.20 ^A %/day"},
      {"measurement": "Survival rate (%)", "setting": "[7]; 8 weeks, with silicic acid", "result": "69.8 ± 4.5 ^A %"},
      {"measurement": "Total biomass (kg of harvested shrimp)", "setting": "[7]; 8 weeks, with silicic acid", "result": "1,047 ± 208.25 ^A kg"},
      {"measurement": "shrimp performance under pond rearing conditions", "setting": "[7]; exposed for 8 weeks", "result": "significantly better"},
      {"measurement": "environment, growth, survival, and energy efficiency of shrimp production", "setting": "[8]; Central Vietnam", "result": "remarkably good results"},
      {"measurement": "higher yields (average)", "setting": "[8]; [11]", "result": 18.7, "unit": "%"},
      {"measurement": "larger shrimps (average)", "setting": "[8]; [11]", "result": 14, "unit": "%"},
      {"measurement": "trypsin gene expression relative to housekeeping gene", "setting": "[9]", "result": "down regulation"},
      {"measurement": "overall yield increase (compared to control)", "setting": "[10]", "result": 18.4, "unit": "%"}
    ]}
  ]
}
